Laboratory results reported in patent publication US11661400B2, “NADPH oxidase inhibitors, pharmaceutical composition comprising the same, and application thereof” (TAIWANJ PHARMACEUTICALS CO., LTD., priority 2018, dated 2023).

What was measured:
[1] = biological target: T1, NOX1 (Homo sapiens, UniProt Q9Y5S8); test: NOX1 HT29 cell-based assay (luminol/HRP luminescence); settings: HT29 cells, DMSO = 0%, GKT137831 = 100%; for inhibition at 0.1 µM / inhibition at 1 µM: HT-29
T1 construct: endogenous in cells; host or cells: HT29
T1 sequence (Q9Y5S8 1-564): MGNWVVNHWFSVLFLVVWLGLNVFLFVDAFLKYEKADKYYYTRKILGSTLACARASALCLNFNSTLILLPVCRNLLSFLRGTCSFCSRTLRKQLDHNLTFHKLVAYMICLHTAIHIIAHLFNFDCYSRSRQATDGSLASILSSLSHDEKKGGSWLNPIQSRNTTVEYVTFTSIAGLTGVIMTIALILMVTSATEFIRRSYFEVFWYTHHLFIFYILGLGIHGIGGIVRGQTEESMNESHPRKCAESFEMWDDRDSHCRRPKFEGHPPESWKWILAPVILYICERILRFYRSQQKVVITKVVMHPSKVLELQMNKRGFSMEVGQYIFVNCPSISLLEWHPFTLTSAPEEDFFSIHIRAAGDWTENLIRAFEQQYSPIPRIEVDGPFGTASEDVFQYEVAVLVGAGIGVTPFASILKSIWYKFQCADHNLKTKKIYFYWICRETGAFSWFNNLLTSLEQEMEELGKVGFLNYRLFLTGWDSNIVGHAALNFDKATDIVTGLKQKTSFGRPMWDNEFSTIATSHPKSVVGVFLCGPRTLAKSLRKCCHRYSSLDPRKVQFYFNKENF
T1 sequence (P13498 2-195 partner limits assumed): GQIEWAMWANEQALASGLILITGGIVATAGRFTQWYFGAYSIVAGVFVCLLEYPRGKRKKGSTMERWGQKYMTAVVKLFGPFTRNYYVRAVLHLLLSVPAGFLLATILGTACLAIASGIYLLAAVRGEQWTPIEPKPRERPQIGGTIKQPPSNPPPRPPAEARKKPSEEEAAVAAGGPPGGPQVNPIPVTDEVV
How it was run: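 HT29 cells (1-2×10^5 per well) pretreated 30-60 min at 37 °C with compound at 100 nM and 1000 nM final, in duplicate, 0.1% DMSO. ROS read as luminol (100 μM)/HRP (0.4 U) luminescence. Activity normalised to DMSO (0%) and GKT137831 (100%).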

[2] = biological target: T2, NOX2 (Homo sapiens, UniProt P04839); test: NOX2 HL60 cell-based assay (PMA oxidative burst, L012 chemiluminescence); settings: DMSO-differentiated HL-60 cells, PMA-stimulated; for inhibition at 1 µM: HL-60, 1000 nM; for inhibition at 0.1 µM: HL-60, 100 nM
T2 construct: HL-60 cells, rich in NOX2 expression; endogenous in cells; host or cells: DMSO-differentiated HL-60
T2 sequence (P04839 2-570 limits assumed): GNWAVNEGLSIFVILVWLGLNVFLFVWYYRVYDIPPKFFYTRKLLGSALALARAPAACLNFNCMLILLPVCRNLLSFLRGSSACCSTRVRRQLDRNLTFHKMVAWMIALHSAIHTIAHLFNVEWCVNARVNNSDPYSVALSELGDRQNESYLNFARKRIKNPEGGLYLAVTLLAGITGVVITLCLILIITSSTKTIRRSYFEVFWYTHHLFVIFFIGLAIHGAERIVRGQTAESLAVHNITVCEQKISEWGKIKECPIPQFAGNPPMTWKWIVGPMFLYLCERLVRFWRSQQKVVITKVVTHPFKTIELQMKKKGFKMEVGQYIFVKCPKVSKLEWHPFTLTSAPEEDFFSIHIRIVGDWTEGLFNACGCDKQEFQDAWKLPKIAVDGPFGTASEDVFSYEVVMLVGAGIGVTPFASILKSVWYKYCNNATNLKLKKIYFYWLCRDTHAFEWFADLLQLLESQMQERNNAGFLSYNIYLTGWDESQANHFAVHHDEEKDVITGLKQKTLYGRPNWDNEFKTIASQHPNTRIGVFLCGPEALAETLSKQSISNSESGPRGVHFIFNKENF
T2 sequence (P13498 2-195 partner limits assumed): T1 sequence (P13498 2-195 partner limits assumed)
How it was run: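 DMSO-differentiated HL-60 cells (2.5×10^5/well) with 100 μM L012 preincubated with compound 30-60 min at 37 °C in the dark. Oxidative burst triggered by 10 ng/mL PMA; superoxide chemiluminescence read every 5 min for 60 min.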

[3] = biological target: T3, NOX4 (Homo sapiens, UniProt Q9NPH5); test: NOX4 HEK293 overexpression cell-based assay (Amplex Red H2O2); settings: HEK293 cells stably overexpressing NOX4, DMSO = 0, GKT137831 = 100; for inhibition at 0.1 µM: HEK293, 100 nM; for inhibition at 1 µM: HEK293, 1000 nM
T3 construct: expressed in transfected cells
T3 sequence (Q9NPH5 1-578): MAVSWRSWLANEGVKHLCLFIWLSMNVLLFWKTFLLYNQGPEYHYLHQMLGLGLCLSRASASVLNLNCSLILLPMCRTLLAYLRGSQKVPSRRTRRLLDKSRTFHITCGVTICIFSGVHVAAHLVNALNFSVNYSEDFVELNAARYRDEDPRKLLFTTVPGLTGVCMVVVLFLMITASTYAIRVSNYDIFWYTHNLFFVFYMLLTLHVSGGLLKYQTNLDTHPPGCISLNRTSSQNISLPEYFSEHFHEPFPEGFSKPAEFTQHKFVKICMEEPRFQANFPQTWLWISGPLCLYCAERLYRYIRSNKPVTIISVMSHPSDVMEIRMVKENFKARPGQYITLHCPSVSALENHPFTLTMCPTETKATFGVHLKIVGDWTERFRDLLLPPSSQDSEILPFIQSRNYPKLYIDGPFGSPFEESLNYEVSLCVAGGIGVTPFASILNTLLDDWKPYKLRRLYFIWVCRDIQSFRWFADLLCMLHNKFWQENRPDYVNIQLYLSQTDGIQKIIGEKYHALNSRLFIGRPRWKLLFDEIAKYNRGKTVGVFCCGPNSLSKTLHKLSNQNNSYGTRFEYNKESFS
T3 sequence (P13498 2-195 partner limits assumed): T1 sequence (P13498 2-195 partner limits assumed)
How it was run: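 HEK293 cells stably overexpressing NOX4 (3×10^4) preincubated 30 min at 37° C with compound in KRPG buffer, then mixed with Amplex Red reagent solution (50 μM Amplex Red, 0.1 units/mL HRP) for 90 min at 37° C in the dark. Supernatant fluorescence read at 530/590 nm; DMSO set to 0 and GKT137831 to 100.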

inhibition at 0.1 µM ([1]; 100 nM) [%]	inhibition at 1 µM ([1]; 1000 nM) [%]	inhibition at 0.1 µM [3] [%]	inhibition at 1 µM [3] [%]	inhibition at 1 µM [2] [%]	inhibition at 0.1 µM [2] [%]	Compound	% Inhibition NOX1 ([1]; 100 nM)	% Inhibition NOX1 ([1]; 1000 nM)	% Inhibition NOX2 ([2]; 100 nM, 0.1 µM)	% Inhibition NOX2 ([2]; 1000 nM, 1 µM)	% Inhibition NOX4 ([3]; 100 nM)	% Inhibition NOX4 ([3]; 1000 nM, 1 µM)	% Inhibition NOX2 ([2]; 100 nM)	% Inhibition NOX4 ([3]; 1000 nM)
						COc1cc2[nH]c(-c3ccccc3OC(F)(F)F)c(O)c(=O)c2cc1OC [Compound 48]	A (the percent of inhibition of NOX by the compounds is larger than or equals to 80%)	A (the percent of inhibition of NOX by the compounds is larger than or equals to 80%)	C (the percent of inhibition of NOX by the compounds ranges from 2000 to 49%)	B (the percent of inhibition of NOX by the compounds ranges from 50% o to 79% o)	C (the percent of inhibition of NOX by the compounds ranges from 2000 to 49%)	A (the percent of inhibition of NOX by the compounds is larger than or equals to 80%)		
≥ 80	≥ 80	50 to 79	50 to 79			COc1cc2[nH]c(-c3ccccc3C(F)(F)F)c(O)c(=O)c2cc1OC [Compound 17]			C (the percent of inhibition of NOX by the compounds ranges from 2000 to 49%)	B (the percent of inhibition of NOX by the compounds ranges from 50% o to 79% o)				
≥ 80	≥ 80	≤ 19		≥ 80		COc1cc2[nH]c(-c3ccccc3OC)c(O)c(=O)c2cc1OC.Cl [Compound 51]							C (the percent of inhibition of NOX by the compounds ranges from 2000 to 49%)	B (the percent of inhibition of NOX by the compounds ranges from 50% o to 79% o)
≥ 80	≥ 80	50 to 79	≥ 80	50 to 79	≤ 19	COc1cc2[nH]c(-c3cccs3)c(O)c(=O)c2cc1OC [Compound 7]								
≥ 80	≥ 80	50 to 79	50 to 79	≥ 80		COc1cc2[nH]c(-c3ccccc3[N+](=O)[O-])c(O)c(=O)c2cc1OC [Compound 29, 3-hydroxy-6,7-dimethoxy-2-(2-nitrophenyl) quinolin-4(1H)-one 2,2,2-trifluoroacetate]							C (the percent of inhibition of NOX by the compounds ranges from 2000 to 49%)	
≥ 80	≥ 80		50 to 79	≥ 80		COc1cc2[nH]c(-c3ccc(Cl)cc3Cl)c(O)c(=O)c2cc1OC [Compound 24]			C (the percent of inhibition of NOX by the compounds ranges from 2000 to 49%)		C (the percent of inhibition of NOX by the compounds ranges from 2000 to 49%)			
≥ 80	≥ 80	50 to 79	50 to 79	≥ 80		COc1cc2[nH]c(-c3ccccc3C)c(O)c(=O)c2cc1OC [Compound 16]							C (the percent of inhibition of NOX by the compounds ranges from 2000 to 49%)	
	≥ 80	≤ 19	50 to 79	≥ 80		Br.O=c1c(O)c(-c2ccc(O)cc2)[nH]c2cc(O)c(O)cc12 [Compound 3, 3,6,7-trihydroxy-2-(4-hydroxyphenyl) quinolin-4(1H)-one hydrobromide]	C (the percent of inhibition of NOX by the compounds ranges from 2000 to 49%)						C (the percent of inhibition of NOX by the compounds ranges from 2000 to 49%)	
≥ 80	≥ 80		≥ 80	≥ 80	≤ 19	COc1cc2[nH]c(-c3ccc(F)cc3)c(O)c(=O)c2cc1OC [Compound 13]					C (the percent of inhibition of NOX by the compounds ranges from 2000 to 49%)			
						COc1cc2[nH]c(-c3ccccc3C(F)(F)F)c(O)c(=O)c2cc1OC [Compound 41, 3-hydroxy-6,7-dimethoxy-2-(2-(trifluoromethyl)phenyl) quinolin-4(1H)-one]	A (the percent of inhibition of NOX by the compounds is larger than or equals to 80%)	A (the percent of inhibition of NOX by the compounds is larger than or equals to 80%)	C (the percent of inhibition of NOX by the compounds ranges from 2000 to 49%)	A (the percent of inhibition of NOX by the compounds is larger than or equals to 80%)	B (the percent of inhibition of NOX by the compounds ranges from 50% o to 79% o)			B (the percent of inhibition of NOX by the compounds ranges from 50% o to 79% o)
≥ 80	≥ 80	≤ 19	50 to 79	50 to 79	≤ 19	COc1ccc(-c2[nH]c3cc(C(=O)O)ccc3c(=O)c2O)cc1 [Compound 33, 3-hydroxy-2-(4-methoxyphenyl)-4-oxo-1,4-dihydroquinoline-7-carboxylic acid]								
